# Measurements published in the supplement of paper PMC10307832.
# How the values were obtained:
# Experiment in all cases: relative viability (nuclei count vs DMSO), 5 days (fraction); higher = more cells survive
# Zebularine + Navitoclax = compound: O=c1ncccn1[C@@H]1O[C@H](CO)[C@@H](O)[C@H]1O [Zebularine] + CC1(C)CCC(c2ccc(Cl)cc2)=C(CN2CCN(c3ccc(C(=O)NS(=O)(=O)c4ccc(N[C@H](CCN5CCOCC5)CSc5ccccc5)c(S(=O)(=O)C(F)(F)F)c4)cc3)CC2)C1 [Navitoclax] (partner 0.5 µM)
# In short: (§1)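 Lung cancer cell lines were seeded in 1536-well plates and dosed by pin tool the next day, with either a single drug or a fixed anchor-drug dose combined with five library-drug doses (not always all listed) spaced in √10 steps. Five days later, one step fixed the cells and stained their nuclei (final 0.05% Triton X-100, 1% formaldehyde, 1 ug/ml Hoechst), and nuclei were counted on 4× images. Relative viability is the nuclei count in treated wells divided by the count in vehicle wells, and each value is the median of duplicate plates.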
# BI-D1870 + Foretinib = compound: CC(C)CCN1c2nc(Nc3cc(F)c(O)c(F)c3)ncc2N(C)C(=O)C1C [BI-D1870] + COc1cc2c(Oc3ccc(NC(=O)C4(C(=O)Nc5ccc(F)cc5)CC4)cc3F)ccnc2cc1OCCCN1CCOCC1 [Foretinib] (partner 0.25 µM)
# In short: as §1
# BI-D1870 + Decitabine = compound: CC(C)CCN1c2nc(Nc3cc(F)c(O)c(F)c3)ncc2N(C)C(=O)C1C [BI-D1870] + Nc1ncn([C@H]2C[C@H](O)[C@@H](CO)O2)c(=O)n1 [Decitabine] (partner 2 µM)
# In short: as §1
# Zebularine + Decitabine = compound: O=c1ncccn1[C@@H]1O[C@H](CO)[C@@H](O)[C@H]1O [Zebularine] + Nc1ncn([C@H]2C[C@H](O)[C@@H](CO)O2)c(=O)n1 [Decitabine] (partner 2 µM)
# In short: as §1
Cell Line,relative viability (Zebularine + Navitoclax; first compound 1 µM),relative viability (Zebularine + Navitoclax; first compound 3.162 µM),relative viability (Zebularine + Navitoclax; first compound 10 µM),relative viability (Zebularine + Navitoclax; first compound 31.62 µM),relative viability (Zebularine + Navitoclax; first compound 100 µM),relative viability (BI-D1870 + Foretinib; first compound 0.04 µM),relative viability (BI-D1870 + Foretinib; first compound 0.1265 µM),relative viability (BI-D1870 + Foretinib; first compound 0.4 µM),relative viability (BI-D1870 + Foretinib; first compound 1.265 µM),relative viability (BI-D1870 + Foretinib; first compound 4 µM),relative viability (BI-D1870 + Decitabine; first compound 0.04 µM),relative viability (BI-D1870 + Decitabine; first compound 0.1265 µM),relative viability (BI-D1870 + Decitabine; first compound 0.4 µM),relative viability (BI-D1870 + Decitabine; first compound 1.265 µM),relative viability (BI-D1870 + Decitabine; first compound 4 µM),relative viability (Zebularine + Decitabine; first compound 1 µM),relative viability (Zebularine + Decitabine; first compound 3.162 µM),relative viability (Zebularine + Decitabine; first compound 10 µM),relative viability (Zebularine + Decitabine; first compound 31.62 µM),relative viability (Zebularine + Decitabine; first compound 100 µM)
LU99A,0.827,0.635,0.596,0.408,0.166,0.913,0.683,0.696,0.788,0.796,0.883,0.814,0.898,0.837,0.725,0.906,0.813,0.61,0.392,0.215
LXF-289,1.02,0.945,0.851,0.744,0.226,1.01,0.942,0.956,0.941,0.88,0.35,0.382,0.372,0.411,0.416,0.362,0.331,0.382,0.345,0.24
NCI-H23,0.775,0.802,–,0.818,0.86,1,1.03,0.986,0.83,0.781,0.336,0.329,0.306,0.333,0.242,0.344,0.342,–,0.303,0.335
NCI-H322M,1.37,1.19,1.13,0.917,0.82,1.06,0.805,0.868,0.87,0.696,0.721,0.631,0.68,0.655,0.729,0.712,0.636,0.614,0.696,0.675
NCI-H441,0.815,0.467,0.366,0.368,0.245,1.08,0.787,1.05,1.05,0.804,0.249,0.273,0.275,0.255,0.312,0.246,0.237,0.266,0.184,0.16
NCI-H460,1.26,1.18,0.0689,0.413,0.0857,1.09,0.869,0.974,1.06,0.305,0.548,0.459,0.473,0.593,0.443,0.549,0.504,0.236,0.467,0.112
NCI-H520,1.16,0.994,0.442,0.427,0.294,0.821,0.724,0.741,0.958,0.818,0.406,0.494,0.597,0.649,0.471,0.552,0.49,0.399,0.299,0.233
NCI-H596,0.974,0.9,0.799,0.984,0.893,0.882,0.918,0.889,0.849,0.958,1.06,0.857,0.956,1.14,0.999,0.84,1.07,0.894,1.06,0.98
NCI-H647,1.25,1.06,0.232,0.143,0.115,1.11,1.18,1.13,1.35,1.17,0.386,0.339,0.481,0.455,0.537,0.391,0.369,0.187,0.144,0.14
NCI-H727,0.492,0.451,0.474,0.442,0.411,0.793,0.931,0.883,0.871,0.739,1.02,0.883,0.909,0.921,1.01,0.855,0.903,0.867,0.84,0.826
NCI-H838,1.2,1.21,0.561,0.815,0.403,1.12,1.01,1.05,1.16,1.15,0.47,0.483,0.477,0.444,0.523,0.504,0.49,0.489,0.42,0.289
NCI-H1355,0.955,0.894,0.898,0.456,0.306,1.05,0.863,0.91,1.07,0.967,0.363,0.31,0.356,0.412,0.394,0.34,0.329,0.334,0.314,0.28
NCI-H1395,0.99,1.37,0.919,0.629,0.473,1.03,0.92,0.964,1.05,0.981,0.68,0.671,0.707,0.738,0.718,0.678,0.755,0.82,0.709,0.623
NCI-H1437,1.23,1.16,–,0.99,0.364,1.35,1.24,1.19,1.25,1.14,0.59,0.53,0.756,0.629,0.56,0.617,0.639,0.464,0.686,0.528
NCI-H1650,1.06,1.06,–,1.21,0.704,1.31,0.756,1.08,1.18,1.27,0.405,0.43,0.554,0.572,0.589,0.347,0.305,0.335,0.378,0.269
NCI-H1651,1.22,1.03,–,0.971,0.506,0.921,0.807,0.882,0.771,0.356,0.615,0.592,0.537,0.64,0.617,0.714,0.56,0.58,0.522,0.347

Cell Line,relative viability (Zebularine + Navitoclax; first compound 1 µM),relative viability (Zebularine + Navitoclax; first compound 3.162 µM),relative viability (Zebularine + Navitoclax; first compound 10 µM),relative viability (Zebularine + Navitoclax; first compound 31.62 µM),relative viability (Zebularine + Navitoclax; first compound 100 µM),relative viability (BI-D1870 + Foretinib; first compound 0.04 µM),relative viability (BI-D1870 + Foretinib; first compound 0.1265 µM),relative viability (BI-D1870 + Foretinib; first compound 0.4 µM),relative viability (BI-D1870 + Foretinib; first compound 1.265 µM),relative viability (BI-D1870 + Foretinib; first compound 4 µM),relative viability (BI-D1870 + Decitabine; first compound 0.04 µM),relative viability (BI-D1870 + Decitabine; first compound 0.1265 µM),relative viability (BI-D1870 + Decitabine; first compound 0.4 µM),relative viability (BI-D1870 + Decitabine; first compound 1.265 µM),relative viability (BI-D1870 + Decitabine; first compound 4 µM),relative viability (Zebularine + Decitabine; first compound 1 µM),relative viability (Zebularine + Decitabine; first compound 3.162 µM),relative viability (Zebularine + Decitabine; first compound 10 µM),relative viability (Zebularine + Decitabine; first compound 31.62 µM),relative viability (Zebularine + Decitabine; first compound 100 µM)
NCI-H1666,0.98,1.05,0.857,1.08,0.575,1.1,0.936,0.952,1.07,0.963,0.711,0.701,0.716,0.732,0.677,0.8,0.736,0.698,0.712,0.669
NCI-H1734,0.926,0.769,0.513,0.475,0.22,0.881,0.827,0.883,0.936,0.837,0.482,0.448,0.531,0.559,0.525,0.445,0.828,0.421,0.516,0.295
NCI-H1755,1.14,1.04,0.773,1.01,0.444,0.908,0.865,0.882,1.03,0.884,0.716,0.685,0.701,0.715,0.692,0.713,0.715,0.703,0.786,0.615
NCI-H1793,0.403,0.448,0.318,0.285,0.208,0.72,0.561,0.63,0.737,0.943,0.513,0.439,0.528,0.681,0.632,0.471,0.523,0.292,0.328,0.218
NCI-H1915,0.816,0.769,0.565,0.872,0.771,1.12,1.01,1.08,1.06,0.99,0.267,0.247,0.285,0.234,0.271,0.284,0.278,0.261,0.265,0.282
NCI-H1944,1.11,0.984,0.705,0.9,0.669,0.992,0.799,0.848,1.04,0.973,0.435,0.415,0.388,0.508,0.432,0.455,0.424,0.449,0.461,0.395
NCI-H1975,1.13,1.08,0.64,0.575,0.229,0.996,0.849,0.884,0.912,0.847,0.436,0.348,0.411,0.361,0.368,0.428,0.346,0.345,0.35,0.267
NCI-H1993,0.946,0.946,–,1.02,0.754,0.777,0.659,0.715,0.784,0.842,0.634,0.438,0.668,0.647,0.579,0.639,0.602,0.506,0.601,0.703
NCI-H2009,1.12,1.13,0.951,0.876,0.358,1.31,1.09,1.23,1.12,1,0.379,0.366,0.394,0.397,0.3,0.386,0.36,0.33,0.383,0.266
NCI-H2023,1.14,1.04,0.851,0.924,0.247,0.919,0.635,0.823,0.851,0.945,0.204,0.188,0.232,0.248,0.281,0.243,0.22,0.166,0.199,0.182
NCI-H2085,1.19,1.17,0.868,1.08,0.573,0.82,0.869,0.832,0.824,0.754,0.541,0.556,0.643,0.519,0.557,0.543,0.506,0.487,0.576,0.508
NCI-H2087,1.16,0.885,0.488,0.767,0.37,1.16,1.23,1.27,1.12,0.982,0.259,0.28,0.307,0.342,0.38,0.322,0.294,0.207,0.279,0.223
NCI-H2126,0.862,0.813,0.766,0.735,0.509,1.23,1.14,1.22,1.15,1.06,0.576,0.549,0.585,0.606,0.556,0.582,0.629,0.585,0.608,0.396
NCI-H2170,0.694,0.642,0.453,0.574,0.432,1.06,0.971,1.05,0.934,0.957,0.515,0.384,0.457,0.445,0.402,0.48,0.423,0.426,0.505,0.349
NCI-H2347,0.836,0.81,0.563,0.475,0.369,0.977,0.993,0.903,0.723,0.863,0.671,0.656,0.619,0.657,0.627,0.658,0.598,0.544,0.575,0.371
NCI-H2405,0.913,0.831,0.798,0.833,0.61,1.09,0.994,1.01,1.05,0.859,0.788,0.693,0.733,0.777,0.726,0.731,0.699,0.671,0.765,0.58
